The source of these data is patent US10570099B2, “Salts of an epidermal growth factor receptor kinase inhibitor” (Celgene CAR LLC, priority 2012, dated 2020).

The structures appear in SMILES notation. Structures can show the parent of a compound that is named as a salt.

A short description of series [1]: 1 week stability of primary screen salts at 40° C./75% RH and 80° C. (open vials, XRPD). In kind it is physicochemical. On the procedure: (§1) (open vials). TGA was carried out after the stability studies for samples containing sufficient material.
Series [2] is described as follows: Shake flask solubility of potential salts in aqueous medium (pH<2). In kind it is physicochemical. The conditions noted are these: pH<2, ca. 24 hours shaking, HPLC. On the procedure: The solubility of the potential salts was tested using a shake flask method whereby a slurry of each salt was prepared in deionized water and the pH of the reaction was reduced to below pH 2 by adding a small amount of the counterion used for salt formation. The pH was tested using universal indicator paper.
as §1

A short description of series [3]: Dog PK Study 2 (gastric pH adjustment, food effect). The conditions noted are these: 30 mg/kg, plasma compound 1, dogs (n = 3), capsule orally 30 mg/kg, mean (% CV); for AUC(0-t): read-out: AUC0-24. In kind it is in vivo, beagle dogs. On the procedure: Compound 1 free base and compound 2, as the Form I monohydrobromide (HBr) salt, were evaluated in a cross-over dog PK study in which male dogs were pre-treated with either pentagastrin (to decrease gastric pH) or famotidine (to increase gastric pH) prior to oral dosing to control gastric pH. In addition, the effect of food on the systemic exposure to compound 1 was also evaluated in dogs receiving Form I HBr with pentagastrin pre-treatment. Compound 1 free base capsule consisted of compound 1 free base in Vitamin E TPGS and PEG 400 filled into a capsule. The Form I hydrobromide salt capsule consisted of Form I HBr alone filled into a capsule.
There was a minimum 6-day washout between dosing. On the day of dosing under fed condition, dogs were given 60 gram of a high fat diet (Harlan Teklad 2027C) and allowed to consume all of the food within 15-20 minutes. The animals were given a 10-minute rest period and then the capsule doses were administered. Plasma samples were collected at pre-dose and 0.5, 1, 2, 4, 6, 8, 12 and 24 hours post dose.

Series [4] in a line: Dog PK Study 1 (cross-over, fasted). Format: in vivo, beagle dogs. The conditions noted are these: male, beagle, po; for AUC(0-t): read-out: AUC0-24; for Tmax: median. On the procedure:
Compound 1 free base and compound 2, as the Form I monohydrobromide (HBr) salt, were evaluated in a cross-over dog PK study. Compound 1 free base capsule consisted of compound 1 free base in Vitamin E TPGS and PEG 400 filled into a capsule. The Form I hydrobromide salt capsule consisted of Form I HBr alone filled into a capsule.
Compound 1 free base capsule and Form I HBr capsule were dosed orally at 28.5 and 24.5 mg/kg (as active) QD, respectively, to three fasted male non-naïve beagle dogs (body weight range: 10.1-10.8 kg) with a 5-day washout period. Approximately 5 mL of tap water was orally administered to encourage swallowing and ensure delivery of capsules into the stomach. Plasma samples were collected at pre-dose and 0.5, 1, 2, 4, 6, 8, 12 and 24 hours post dose. The plasma concentrations of compound 1 were determined by a liquid chromatography-tandem mass spectrometry (LC/MS/MS) method.

Series [5] in a line: Dynamic vapour sorption (DVS). In kind it is physicochemical. As to the method: For dynamic vapour sorption (DVS), approximately 10-20 mg of sample was placed into a wire mesh vapour sorption balance pan and loaded into a DVS-1 dynamic vapour sorption balance by Surface Measurement Systems. The sample was subjected to a ramping profile from 20-90% relative humidity (RH) at 10% increments, maintaining the sample at each step until a stable weight had been achieved (99.5% step completion). After completion of the sorption cycle, the sample was dried using the same procedure, but all the way down to 0% RH and finally taken back to the starting point of 20% RH. The weight change during the sorption/desorption cycles were plotted, allowing for the hygroscopic nature of the sample to be determined.

Series [6] is described as follows: Thermodynamic solubility in media of various pH (HPLC; XRPD of excess solids). The conditions noted are these: for Thermodynamic Solubility: ca. 24 hours. On the procedure:
The remaining solids were also analysed by XRPD analysis to establish if any changes in the solid form occurred.
The remaining solids were also analysed by XRPD analysis to establish if any changes in the solid form occurred. For the buffer solutions, KCl/HCl was used for pH 1 and citrate/phosphate combinations for pH 3, 4.5 and 6.6.
The remaining solids were also analysed by XRPD analysis to establish if any changes in the solid form occurred. For the buffer solutions, KCl/HCl was used for pH 1 and citric acid/sodium citrate combinations for pH 3, 4.5 and 6.2.
The solids were then removed by filtration and tested by XRPD analysis. The mother liquors were analyzed by HPLC to determine API solubility.
For the buffer solutions, KCl/HCl was used for pH 1 and citrate/phosphate combinations for pH 3, 4.5 and 6.6 (10 mM). The pH of the solutions was also measured prior to HPLC analysis.

Series [7] is described as follows: 1 week stability study (XRPD and HPLC). Format: physicochemical. As to the method:
(§2) Resulting solids were analysed by XRPD and HPLC to establish if any changes had occurred.
as §2
The resulting solids were analysed by XRPD and HPLC to establish if any changes had occurred.

Where [8] appears, read: dog, plasma compound 1, fasted dogs (n = 3), capsule orally 24.5 mg/kg, mean (% CV).
The mark [9] stands for this setting: 25° C., closed container, 7 day.
Setting [10] is: 80° C., closed container, 7 day.
[11] abbreviates: plasma compound 1, fasted dogs, capsule orally 28.5 mg/kg, mean, dog #3 excluded.

Regarding `C=CC(=O)Nc1cccc(Nc2nc(Nc3ccc(N4CCN(C(C)=O)CC4)cc3OC)ncc2C(F)(F)F)c1.O=C(O)c1c(O)cc(O)cc1O` [2,4,6-Trihydroxybenzoate Form I], in series [1], the “Stability 40° C./75% RH (open conditions)” value is listed as “No form change,” and the “Stability 80° C. (open conditions)” value was “No form change,”. Also, the “Approximate Solubility” value in series [2] was “Below LOQ”.
As for `C=CC(=O)Nc1cccc(Nc2nc(Nc3ccc(N4CCN(C(C)=O)CC4)cc3OC)ncc2C(F)(F)F)c1` [Compound 2 (Form I Hydrobromide)], the AUC(0-t) stood at 13900 ng·h/mL in series [3] (male, beagle, dog, plasma, po, Pentagastrin, fed) and 5260 ng·h/mL in series [4] (setting [8]). Also, the Cmax in series [3] (male, beagle, dog, plasma, po, Pentagastrin, fed, read-out: Cmax) is 3970 ng/mL; in series [3] (Famotidine, fasted), 1180 (20%) ng/mL; in series [3] (Pentagastrin, fasted), 2860 (39%) ng/mL; in series [4] (setting [8]), 1420 ng/mL. Moreover, the AUC0-24 in series [3] (Famotidine, fasted) is listed as 4010 (54%) ng · h/mL; in series [3] (Pentagastrin, fasted), 9450 (31%) ng · h/mL. The molecule also had a half-life in series [4] (dog, plasma compound 1, fasted dogs (n = 3), capsule orally 24.5 mg/kg, mean) of 2.4 h. Besides, the Tmax in series [4] (dog, plasma compound 1, fasted dogs (n = 3), capsule orally 24.5 mg/kg) is 2 h.
For the molecule `Br.C=CC(=O)Nc1cccc(Nc2nc(Nc3ccc(N4CCN(C(C)=O)CC4)cc3OC)ncc2C(F)(F)F)c1` [Form III hydrobromide salt], the “hygroscopicity (DVS)” value in series [5] is on record as “slightly hygroscopic”. Moreover, the “Moisture uptake, Cycle 3 Sorption” value in series [5] (0-20% RH) was “ca. 0.535%”. The “mass uptake, Cycle 1 Sorption” value in series [5] (20-90% RH) is given as “ca. 1.045%”. Also, in series [5] (90-0% RH), the “mass decrease, Cycle 2 Desorption” value was “ca. 1.983%”. Moreover, the “post DVS XRPD analysis (polymorphic form)” value in series [5] (after DVS cycles, listed as Form III) is recorded as “converted to Form I hydrobromide salt”. In addition, the “pH prior to analysis” value in series [6] (Buffer pH 1) is given as 0.95; in series [6] (Buffer pH 3) it was 1.53; in series [6] (Buffer pH 4.5), 1.79; in series [6] (Buffer pH 6.6), 1.79. Also, the “XRPD of excess solids” value in series [6] (pH 1.0, KCl/HCl) is “remained predominantly consistent with the Form III hydrobromide”; in series [6] (pH 3.0, Citrate/Phosphate), “became amorphous”; in series [6] (pH 4.5, Citrate/Phosphate), “converted to a freebase hydrate form”; in series [6] (pH 6.6, Citrate/Phosphate) it was “converted to a freebase hydrate form”. The “Thermodynamic Solubility” value in series [6] (pH 1.0, KCl/HCl buffer, listed as Form III) was 13880 µg/mL; in series [6] (pH 4.5, Citrate/Phosphate), 280 µg/mL. For the same molecule, the “HPLC purity after storage” value was determined as 98.9% in series [7] (setting [9]); 98.2% in series [7] (25° C., open container, 7 day); 99.0% in series [7] (40° C./75% RH, closed (crimped) vial, 1 week); 98.3% in series [7] (40° C./75% RH, open vial, 1 week); 99.0% in series [7] (setting [10]); 98.7% in series [7] (80° C., open vial, 1 week, listed as Form III). Besides, the XRPD after storage result is on record as “Form I” in series [7] (setting [9]); “Form I” in series [7] (25° C., open container, 7 day); “Form I” in series [7] (40° C./75% RH, closed (crimped) vial, 1 week, listed as Form III); “Form I” in series [7] (40° C./75% RH, open vial, 1 week, listed as Form III); “Form I” in series [7] (setting [10]).
`C=CC(=O)Nc1cccc(Nc2nc(Nc3ccc(N4CCN(C(C)=O)CC4)cc3OC)ncc2C(F)(F)F)c1` [Compound 1 (Free Base)]: in series [3] (male, beagle, dog, plasma, po, Pentagastrin, fasted), the AUC(0-t) was determined as 7810 ng·h/mL. The Cmax in series [3] (male, beagle, dog, plasma, po, Pentagastrin, fasted, read-out: Cmax) is 1820 ng/mL. In addition, in series [3] (Famotidine, fasted), the AUC0-24 is on record as 163 (3%) ng · h/mL and the Cmax is 57 (24%) ng/mL. Also, in series [4] (setting [11]), the Cmax worked out at 120 ng/mL, the half-life is 2.1 h and the AUC(0-t) turned out to be 278 ng·h/mL. The time to peak (Tmax) in series [4] (plasma compound 1, fasted dogs, capsule orally 28.5 mg/kg, dog #3 excluded) was determined as 1 h.
For the molecule `C=CC(=O)Nc1cccc(Nc2nc(Nc3ccc(N4CCN(C(C)=O)CC4)cc3OC)ncc2C(F)(F)F)c1.O=C(O)c1c(O)cc(O)cc1O` [2,4,6-Trihydroxybenzoate Form II], the “Approximate Solubility” value in series [2] was “Below LOQ”.
